pIC50: −log10 of the molar value. Where two headings read alike, the source gives them in different places.
Columns and labels:
Avi-tagged FL MALT-1 = Avi-tagged FL MALT-1 (Homo sapiens (Human), UniProt Q9UDY8); experiment: MALT-1 Fluorogenic Peptide Cleavage Assay (MALT1 inhibition assay); type: biochemical; settings: Ac-LRSR-AMC peptide substrate, 30 min pre-incubation, 90 min reaction at room temperature
Procedure, shortened: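 Cleavage of Ac-LRSR-AMC, read as fluorescence at 342/441 nm after 90 min at room temperature, with substrate working stocks of 50 μM (Km) or 280 μM (10×Km). Enzyme, Avi-tagged full-length MALT-1 (40 nM stock), was first pre-incubated 30 min with compound in citrate/HEPES pH 6.89 buffer with TCEP, EDTA, CHAPS and 2% DMSO; IC50 fitted from normalised % inhibition.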

[1] = test system: NF-kB reporter in Jurkat cells; experiment: NF-kB reporter assay in Jurkat cells stimulated with aCD3/aCD28/PMA; type: cell-based; settings: Homo sapiens, read-out: NF-kB Reporter Assay IC50
Procedure, shortened: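 Luminescence (One-Glo) from the NF-kB reporter yielded IC50 values. Stimulation lasted 4 h at 37° C with aCD3, aCD28 and PMA (final 5, 5 and 0.03 […]), after 1 h compound pre-exposure of 25,000 Jurkat cells per well in serum-free RPMI.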

[2] = Jurkat cells, 1 hr compound pre-incubation, aCD3/aCD28/PMA stimulation 4 hr, One-Glo readout

Avi-tagged FL MALT-1, sequence (Q9UDY8 whole entry): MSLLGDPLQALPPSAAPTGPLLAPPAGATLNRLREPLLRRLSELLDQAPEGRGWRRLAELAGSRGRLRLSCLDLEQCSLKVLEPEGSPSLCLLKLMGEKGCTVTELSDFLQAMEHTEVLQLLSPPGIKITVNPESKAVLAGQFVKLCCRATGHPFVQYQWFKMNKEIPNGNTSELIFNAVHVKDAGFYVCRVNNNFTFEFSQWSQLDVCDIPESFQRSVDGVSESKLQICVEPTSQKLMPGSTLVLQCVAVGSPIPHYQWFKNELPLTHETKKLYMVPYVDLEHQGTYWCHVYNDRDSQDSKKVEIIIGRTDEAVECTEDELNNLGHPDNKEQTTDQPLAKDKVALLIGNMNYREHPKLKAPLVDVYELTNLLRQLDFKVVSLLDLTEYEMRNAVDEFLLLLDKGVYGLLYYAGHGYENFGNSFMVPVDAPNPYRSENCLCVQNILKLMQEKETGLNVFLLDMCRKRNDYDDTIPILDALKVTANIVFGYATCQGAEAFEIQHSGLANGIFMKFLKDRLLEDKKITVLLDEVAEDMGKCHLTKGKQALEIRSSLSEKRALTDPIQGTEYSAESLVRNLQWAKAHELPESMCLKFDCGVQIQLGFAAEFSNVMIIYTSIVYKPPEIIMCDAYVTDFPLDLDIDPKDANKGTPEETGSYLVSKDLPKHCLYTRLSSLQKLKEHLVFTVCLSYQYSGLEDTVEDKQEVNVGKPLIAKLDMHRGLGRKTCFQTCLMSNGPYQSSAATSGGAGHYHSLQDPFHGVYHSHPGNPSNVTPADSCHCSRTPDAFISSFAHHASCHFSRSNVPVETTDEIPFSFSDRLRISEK

pIC50 (Avi-tagged FL MALT-1) | pIC50 [1, 2] | SMILES | pIC50 ([1]; Jurkat)
< 5.60 | 5.60 to 6.00 | COc1ncc2cnn(C)c2c1NS(=O)(=O)c1cnn(-c2cc(N3CCOCC3)ccn2)c1 [Compound I-416] | –
< 5.60 | > 6.40 | Cn1ncc2cccc(NS(=O)(=O)c3cnn(-c4cc([C@]5(O)C[C@@H](C)C5)ccn4)c3)c21 [Compound I-271, 1-(4-((1s,3s)-1-hydroxy-3-methylcyclobutyl)pyridin-2-yl)-N-(1-methyl-1H-indazol-7-yl)-1H-pyrazole-4-sulfonamide] | –
< 5.60 | 5.60 to 6.00 | COCC(COC)(OC)c1ccnc(-n2cc(S(=O)(=O)Nc3cccc4cnn(C)c34)cn2)c1 [Compound I-259, N-(1-methyl-1H-indazol-7-yl)-1-(4-(1,2,3-trimethoxypropan-2-yl)pyridin-2-yl)-1H-pyrazole-4-sulfonamide] | –
< 5.60 | > 6.40 | Cn1ncc2cccc(NS(=O)(=O)c3cnn(-c4cc(N5CC(C)(C)C5)ccn4)c3)c21 [Compound I-367] | –
< 5.60 | 6.00 to 6.40 | CN1CCC(n2cc(S(=O)(=O)Nc3cccc4cnn(C)c34)cn2)CC1 [Compound I-345] | –
< 5.60 | < 5.60 | Cn1ncc2cccc(NS(=O)(=O)c3cnn(-c4cnc5n4CCOC5)c3)c21 [Compound I-473, 1-(5,6-dihydro-8H-imidazo[2,1-c][1,4]oxazin-3-yl)-N-(1-methyl-1H-indazol-7-yl)-1H-pyrazole-4-sulfonamide] | –
< 5.60 | < 5.60 | COc1ccc2cnn(C)c2c1NS(=O)(=O)c1cnn(-c2cnn3c2OCCC3)c1 [Compound I-467, N-(6-methoxy-1-methylindazol-7-yl)-1-{5H,6H,7H-pyrazolo[3,2-b] [1,3]oxazin-3-yl} pyrazole-4-sulfonamide] | –

The next lines start with the molecule.

SMILES | pIC50 (Avi-tagged FL MALT-1) | pIC50 [1, 2] | pIC50 ([1]; Jurkat)
COc1ccc2cnn(C)c2c1NS(=O)(=O)c1cnn(-c2cc(C3(F)CCC3)ccn2)c1 [Compound I-144, 1-(4-(1-fluorocyclobutyl)pyridin-2-yl)-N-(6-methoxy-1-methyl-1H-indazol-7-yl)-1H-pyrazole-4-sulfonamide] | ≥ 6.40 | – | > 6.40
O=S(=O)(c1cnn(-c2cc(C(F)(F)F)ccn2)c1)N1CCCCn2ncc3cccc1c32 [Compound I-396, 1-((1-(4-(trifluoromethyl)pyridin-2-yl)-1H-pyrazol-4-yl)sulfonyl)-2,3,4,5-tetrahydro-1H-[1,4]diazocino[3,2,1-hi]indazole] | < 5.60 | – | < 5.60
COC1(c2ccnc(-n3cc(S(=O)(=O)Nc4cccc5[nH]nc(C)c45)cn3)c2)COC1 [Compound I-244, 1-(4-(3-methoxyoxetan-3-yl)pyridin-2-yl)-N-(3-methyl-1H-indazol-4-yl)-1H-pyrazole-4-sulfonamide] | < 5.60 | > 6.40 | –
CCCc1ccc2cnn(C)c2c1NS(=O)(=O)c1cnn(-c2ccnc(C(F)(F)F)c2)c1 [Compound I-38, N-(1-Methyl-6-Propyl-1H-Indazol-7-yl)-1-(2-(Trifluoromethyl) Pyridin-4-yl)-1H-Pyrazole-4-Sulfonamide] | ≥ 6.40 | > 6.40 | –
CCc1ccc2cn(C)nc2c1NS(=O)(=O)c1cnn(-c2ccnc(C(F)(F)F)c2)c1 [Compound I-48, N-(6-Ethyl-2-Methyl-2H-Indazol-7-yl)-1-(2-(Trifluoromethyl) Pyridin-4-yl)-1H-Pyrazole-4-Sulfonamide] | ≥ 6.40 | < 5.60 | –
COC1(c2ccnc(-n3cc(S(=O)(=O)Nc4cccc5cnn(C)c45)cn3)c2)CC(F)(F)C1 [Compound I-138, 1-(4-(3,3-difluoro-1-methoxycyclobutyl)pyridin-2-yl)-N-(1-methyl-1H-indazol-7-yl)-1H-pyrazole-4-sulfonamide] | < 5.60 | > 6.40 | –
COC(C)c1ccnc(-n2cc(S(=O)(=O)Nc3cccc4cnn(C)c34)cn2)c1 (stereo not shown) [Compound I-116, 1-(4-(1-methoxyethyl)pyridin-2-yl)-N-(1-methyl-1H-indazol-7-yl)-1H-pyrazole-4-sulfonamide] | < 5.60 | > 6.40 | –
